Results: paper PMC7584622, “Sensing of autoinducer-2 by functionally distinct receptors in prokaryotes” (Nature Communications, 2020)
Several values for one entry are separate records, joined by “and”; a condition that tells them apart may be missing. Identical values can stand only once.

What was measured:
rpHK1S-Z16 = experiment: in vitro DGC activity assay, c-di-GMP synthesis (HPLC); format: biochemical, R. palustris; conditions: 100 μM GTP, 30 °C
Procedure: The DGC activity of rpHK1S-Z16 was determined by measuring the synthesis of c-di-GMP using an HPLC-based method. […] The reaction was initiated by adding 100 μM GTP and the reaction was allowed to proceed for 0, 30 and 60 min at 30 °C. At indicated time points, 50 μl aliquots were removed and heated at 100 °C for 5 min. Denatured proteins were removed through centrifugation and the supernatants were filtered through a 0.22 μm membrane. Samples were injected into an HPLC (Agilent 1260 infinity II) system equipped with a C18 reversed-phase column and a UV detector. Components were eluted isocratically with 98% A (150 mM Na2HPO4, pH 5.2) and 2% B (acetonitrile) in 15 min at a flow rate of 1 ml min^−1. The detection wavelength was 252 nm. GTP (Sigma, Cat# G8877) and c-di-GMP (Sigma, Cat# SML1228) were run as standards. The levels of synthesized c-di-GMP in the supernatants were determined from the standard curve obtained using known concentrations of c-di-GMP.

PctA-LBD Y121A = biological target: T1, PctA-LBD Y121A (Pseudomonas aeruginosa, UniProt G3XD24, Y121A); experiment: biochemical; format: binding; conditions: PctA-LBD Y121A 70 μM; DPD/AI-2 700 μM
T1 construct: Amino acids 30-278 and 36-360 of PctA and TlpQ, respectively; His6 (N, cleaved yes); made in house; host or cells: E. coli BL21(DE3) (pET-28a derivative)
T1 sequence (G3XD24 30-278 Y121A): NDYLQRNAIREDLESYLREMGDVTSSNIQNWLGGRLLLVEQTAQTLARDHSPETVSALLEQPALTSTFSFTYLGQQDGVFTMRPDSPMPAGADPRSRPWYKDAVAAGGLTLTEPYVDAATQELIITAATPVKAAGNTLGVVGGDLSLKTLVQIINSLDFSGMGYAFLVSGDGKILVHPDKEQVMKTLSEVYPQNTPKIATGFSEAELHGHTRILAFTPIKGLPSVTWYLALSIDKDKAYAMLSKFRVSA

P. aeruginosa PAO1 = experiment: quantitative capillary chemotaxis assay
LsrB = conditions: established receptor LsrB; cited from earlier work
PctA-LBD D146A = biological target: T2, PctA-LBD D146A (Pseudomonas aeruginosa, UniProt G3XD24, D146A); experiment: biochemical; format: binding; conditions: PctA-LBD D146A 70 μM; DPD/AI-2 700 μM
T2 construct: Amino acids 30-278 and 36-360 of PctA and TlpQ, respectively; His6 (N, cleaved yes); made in house; host or cells: E. coli BL21(DE3) (pET-28a derivative)
T2 sequence (G3XD24 30-278 D146A): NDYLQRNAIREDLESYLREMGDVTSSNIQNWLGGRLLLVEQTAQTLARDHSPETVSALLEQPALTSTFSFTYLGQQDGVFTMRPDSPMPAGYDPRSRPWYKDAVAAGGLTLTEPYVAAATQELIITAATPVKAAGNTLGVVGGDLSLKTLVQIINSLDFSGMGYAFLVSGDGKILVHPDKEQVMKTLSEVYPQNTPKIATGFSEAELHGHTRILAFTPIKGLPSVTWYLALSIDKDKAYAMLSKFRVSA

PctA = biological target: T3, PctA (Pseudomonas aeruginosa, UniProt G3XD24); experiment: in vitro methylation of PctA by CheR1 (LC-MS/MS); format: biochemical, P. aeruginosa; conditions: for Methylation level (%) of PctA at E381: CheR1, 10 μM SAM, 1 h, 30 °C; for Methylation level (%) of PctA, Fig. S5a / Methylation level (%) of PctA, Fig. S5b: site not given (Supplementary Fig. 5: E395 and E614)
T3 construct: the membrane fractions containing full-length PctA, KinD or rpHK1S-Z16 were collected; made in house; host or cells: E. coli HCB721 (pHSe5), membrane fractions
T3 sequence (G3XD24 whole entry): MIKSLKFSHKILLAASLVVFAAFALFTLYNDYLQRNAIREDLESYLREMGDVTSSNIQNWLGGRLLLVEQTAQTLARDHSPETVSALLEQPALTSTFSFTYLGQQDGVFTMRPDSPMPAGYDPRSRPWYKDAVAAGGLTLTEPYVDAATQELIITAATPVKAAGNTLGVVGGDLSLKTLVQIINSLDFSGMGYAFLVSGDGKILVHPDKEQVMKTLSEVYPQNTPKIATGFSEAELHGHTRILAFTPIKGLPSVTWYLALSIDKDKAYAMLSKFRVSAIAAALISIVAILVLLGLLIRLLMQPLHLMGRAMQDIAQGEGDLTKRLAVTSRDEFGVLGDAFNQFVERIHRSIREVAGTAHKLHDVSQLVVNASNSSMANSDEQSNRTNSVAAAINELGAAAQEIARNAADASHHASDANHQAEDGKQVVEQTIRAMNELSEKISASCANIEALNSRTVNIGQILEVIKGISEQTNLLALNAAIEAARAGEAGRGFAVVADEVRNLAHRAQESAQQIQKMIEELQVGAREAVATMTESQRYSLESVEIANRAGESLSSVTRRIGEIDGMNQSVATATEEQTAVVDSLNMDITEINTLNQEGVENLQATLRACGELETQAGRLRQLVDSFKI
Procedure: The reaction was initiated by adding 10 μM SAM and the reaction was allowed to proceed for another 1 h at 30 °C. […] A control experiment was performed with no addition of SAM to check the initial methylation state of PctA. The reaction was stopped by adding 2× SDS-PAGE loading buffer. The reaction products were resolved by SDS-PAGE and stained with Coomassie brilliant blue. The gel bands corresponding to PctA were excised and used for detection and quantification of methylation by nano-LC-MS/MS.
Gel slices excised from SDS-PAGE gels were destained with three washes in 100 μl of 100 mM ammonium bicarbonate in 50% acetonitrile at 37 °C for 15 min. Destained gel pieces were dried in a SpeedVac (Thermo Fisher Scientific) for 15 min. 10 mM DTT in 25 mM ammonium bicarbonate was added to cover the gel pieces and incubated at 56 °C for 1 h. After cooling to room temperature, the supernatant was replaced by 55 mM iodoacetamide in 25 mM ammonium bicarbonate followed by 1 h incubation at room temperature in darkness. Gel slices were washed with 100 μl of 25 mM ammonium bicarbonate for 10 min, and then shrunk in acetonitrile for 10 min. Acetonitrile was removed and the gel slices were dried in a SpeedVac. The dried gel slices were swollen with 20 μl of 12.5 ng µl^−1 Pierce^TM trypsin protease (MS-grade; Thermo Fisher Scientific) in 50 mM ammonium bicarbonate at 4 °C for 1 h. An additional 30 μl of 50 mM ammonium bicarbonate was supplemented, followed by overnight incubation at 37 °C. After digestion, supernatants were transferred to a new tube, and remaining peptides were extracted from the gel slices with 50 μl of 0.1% trifluoroacetic acid at 37 °C for 30 min. Combined extracts for each gel slice were dried in a SpeedVac. The dried peptide samples were resolubilized in 0.1% formic acid and analyzed in C18 reversed-phase column connected to an EASY-nLC 1000 interfaced via a Nanospray Flex ion source to an Orbitrap Fusion Tribrid mass spectrometer (Thermo Fisher Scientific). The LC mobile phase consisted of 0.1% formic acid (v/v) in water (A) and 0.1% formic acid in acetonitrile (B). […] A data-dependent Top 20 method was used with precursor MS1 scan (m/z 350–1550) acquired in the Orbitrap at a resolution of 120,000, followed by Orbitrap HCD-MS/MS and OTHCD-MS/MS of the 20 most abundant multiply charged precursors in the MS1 spectrum. MS2 spectra were acquired at a resolution of 30,000. Methylation on glutamic acid residues of PctA and phosphorylation on histidine residues of KinD were set as variable modifications. Protein identification and quantification were performed using Mascot Daemon version 2.5.1 (Matrix Science, Boston, USA) considering the specific modifications.

LuxP = biological target: LuxP; design: method as in PMID 18215018; conditions: established receptor LuxP; cited from earlier work
PctA-LBD M111A = biological target: T4, PctA-LBD M111A (Pseudomonas aeruginosa, UniProt G3XD24, M111A); experiment: biochemical; format: binding; conditions: PctA-LBD M111A 70 μM; DPD/AI-2 700 μM
T4 construct: Amino acids 30-278 and 36-360 of PctA and TlpQ, respectively; His6 (N, cleaved yes); made in house; host or cells: E. coli BL21(DE3) (pET-28a derivative)
T4 sequence (G3XD24 30-278 M111A): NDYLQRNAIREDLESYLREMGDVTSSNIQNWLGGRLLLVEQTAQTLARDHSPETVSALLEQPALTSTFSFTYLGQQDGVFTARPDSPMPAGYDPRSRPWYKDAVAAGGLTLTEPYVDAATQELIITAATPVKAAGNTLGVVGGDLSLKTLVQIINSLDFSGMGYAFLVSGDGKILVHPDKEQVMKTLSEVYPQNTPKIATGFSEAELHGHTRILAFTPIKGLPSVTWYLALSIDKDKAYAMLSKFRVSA

CC(=O)C(=O)C(O)CO (stereo not shown) [DPD/AI-2, 4,5-dihydroxy-2,3-pentanedione]
Concentration of c-di-GMP (rpHK1S-Z16; 100 μM DPD/AI-2, 30 min): 25.52 µM and 26.85 µM and 25.80 µM
Concentration of c-di-GMP (rpHK1S-Z16; 100 μM DPD/AI-2, 60 min): 33.20 µM and 34.39 µM and 33.48 µM
Concentration of c-di-GMP (rpHK1S-Z16; 200 μM DPD/AI-2, 30 min): 34.46 µM and 32.43 µM and 32.71 µM
Concentration of c-di-GMP (rpHK1S-Z16; 200 μM DPD/AI-2, 60 min): 45.28 µM and 43.18 µM and 41.92 µM
Kd (PctA-LBD Y121A): 23 µM and 22 µM and 19 µM
Cells per capillary (P. aeruginosa PAO1; 1 μM DPD/AI-2, PAO1, 30 min, buffer capillary subtracted): 3700 and 4300 and 4700 and 2900 and 5300
Cells per capillary (P. aeruginosa PAO1; 10 μM DPD/AI-2, PAO1, 30 min, buffer capillary subtracted): 9900 and 11300 and 14200 and 11400 and 10800
Cells per capillary (P. aeruginosa PAO1; 100 μM DPD/AI-2, PAO1, 30 min, buffer capillary subtracted): 30800 and 31500 and 39700 and 42100 and 39200
Cells per capillary (P. aeruginosa PAO1; 1000 μM DPD/AI-2, PAO1, 30 min, buffer capillary subtracted): 23500 and 25700 and 24700 and 27800 and 19800
concentration of optimal chemotactic response (P. aeruginosa PAO1; P. aeruginosa PAO1, capillary, 30 min): 100 µM
Cells per capillary (P. aeruginosa PAO1; strain ΔPA1608, 100 μM DPD/AI-2, Fig. 1d): 37200 and 36700 and 39700 and 37700 and 35300
Cells per capillary (P. aeruginosa PAO1; strain ΔPA1646, 100 μM DPD/AI-2, Fig. 1d): 37700 and 38800 and 33600 and 35400 and 35300
Cells per capillary (P. aeruginosa PAO1; strain ΔPA2573, 100 μM DPD/AI-2, Fig. 1d): 39200 and 34600 and 39900 and 36000 and 39600
Cells per capillary (P. aeruginosa PAO1; strain ΔPA2652, 100 μM DPD/AI-2, Fig. 1d): 38500 and 34500 and 34200 and 36900 and 36500
Cells per capillary (P. aeruginosa PAO1; strain ΔPA2788, 100 μM DPD/AI-2, Fig. 1d): 33800 and 38800 and 38900 and 36100 and 38600
Cells per capillary (P. aeruginosa PAO1; strain ΔPA2867, 100 μM DPD/AI-2, Fig. 1d): 38500 and 34300 and 34100 and 37600 and 33900
Cells per capillary (P. aeruginosa PAO1; strain ΔPA2920, 100 μM DPD/AI-2, Fig. 1d): 36800 and 33100 and 39300 and 35100
Cells per capillary (P. aeruginosa PAO1; strain ΔPA4290, 100 μM DPD/AI-2, Fig. 1d): 35800 and 35100 and 37600 and 35000 and 38600
Cells per capillary (P. aeruginosa PAO1; strain ΔPA4520, 100 μM DPD/AI-2, Fig. 1d): 33900 and 37400 and 33500 and 36700
Cells per capillary (P. aeruginosa PAO1; strain ΔPA4633, 100 μM DPD/AI-2, Fig. 1d): 35700 and 39100
Cells per capillary (P. aeruginosa PAO1; strain Δaer, 100 μM DPD/AI-2, Fig. 1d): 36600 and 36200 and 39600 and 36400 and 37100
Cells per capillary (P. aeruginosa PAO1; strain ΔctpH, 100 μM DPD/AI-2, Fig. 1d): 38900 and 35200 and 37100 and 35400 and 36800
Cells per capillary (P. aeruginosa PAO1; strain ΔmcpS, 100 μM DPD/AI-2, Fig. 1d): 36800 and 35200 and 37500 and 35600 and 39600
Cells per capillary (P. aeruginosa PAO1; strain ΔpctA, 100 μM DPD/AI-2, Fig. 1d): 21400 and 23800 and 20800 and 21700 and 21800
Cells per capillary (P. aeruginosa PAO1; strain ΔpctB, 100 μM DPD/AI-2, Fig. 1d): 37100 and 39500 and 37300 and 38300 and 35300
Cells per capillary (P. aeruginosa PAO1; strain ΔpctC, 100 μM DPD/AI-2, Fig. 1d): 35300 and 37100 and 37200 and 36800 and 35800
Cells per capillary (P. aeruginosa PAO1; strain ΔtlpQ, 100 μM DPD/AI-2, Fig. 1d): 26100 and 28500 and 25300 and 27300 and 24300
Kd (LsrB): 0.19 to 0.81 µM
Kd (PctA-LBD D146A): 39 µM and 30 µM and 31 µM
Methylation level (%) of PctA at E381 (PctA; 100 μM DPD/AI-2): 47.62% and 40.00%
Methylation level (%) of PctA, Fig. S5a (PctA; 100 μM DPD/AI-2): 41.67% and 36.36% and 40.00%
Methylation level (%) of PctA, Fig. S5b (PctA; 100 μM DPD/AI-2): 2.78% and 2.86% and 2.41%
Methylation level (%) of PctA at E381 (PctA; 500 μM DPD/AI-2): 66.67% and 55.56% and 63.16%
Methylation level (%) of PctA, Fig. S5a (PctA; 500 μM DPD/AI-2): 39.22% and 37.21% and 34.21%
Methylation level (%) of PctA, Fig. S5b (PctA; 500 μM DPD/AI-2): 2.27% and 2.63%
Kd (LuxP): 0.16 µM
Kd (PctA-LBD M111A): 14 µM and 21 µM and 17 µM
